This assay concerns the target CDK2 (human) (UniProt P24941). Description: Enzyme Assay.

Where only a bound is given, the exact number is not on record here.

Regarding `CCCOc1ccc(Nc2c(C)c(N[C@H]3CC[C@H](N)CC3)nc3ccnn23)cc1`, the IC50 was under 100 µM.

On to `COc1ccc(Nc2c(C)c(N[C@H]3CC[C@H](N)CC3)nc3ccnn23)cc1`, for which the half-maximal inhibitory concentration (IC50) was under 100 µM.

In the case of `Cc1c(N[C@H]2CC[C@H](N)CC2)nc2ccnn2c1Nc1ccc(OCC2CCCC2)cc1`, the 50% inhibitory concentration (IC50) was under 100 µM.

In turn, `CCc1c(N[C@H]2CC[C@H](N)CC2)nc2ccnn2c1Nc1ccc(N2CCCC2=O)cc1` had an IC50 of under 100 µM.

In turn, `Cc1c(N[C@H]2CC[C@H](N)CC2)nc2ccnn2c1Nc1ccc(-n2ccnc2)cc1` came in with an IC50 of under 100 µM.

Consider `CCOc1ccc(Nc2c(C)c(N(CC)C3CCCNC3)nc3ccnn23)cc1` (stereo not drawn), for which the IC50 was under 100 µM.

Regarding `N[C@H]1CC[C@H](Nc2cc(Nc3ccc(F)c(Cl)c3)n3ncc(I)c3n2)CC1`, the 50% inhibitory concentration (IC50) was under 100 µM.

Regarding `CCOc1ccc(-c2ccc(Nc3c(C)c(N[C@H]4CC[C@H](N)CC4)nc4ccnn34)cc2)cc1`, the IC50 is under 100 µM.

Take `CCOc1ccc(Nc2c(C)c(N[C@H]3CC[C@H](N)CC3)nc3c(NC)cnn23)cc1`: the concentration for half-maximal inhibition (IC50) was under 100 µM.

As to `Cc1c(N[C@H]2CC[C@H](N)CC2)nc2ccnn2c1Nc1ccc(OCc2ccc(N)cc2)cc1`, the 50% inhibitory concentration (IC50) is under 100 µM.

For the compound `Cc1c(N[C@H]2CC[C@H](N)CC2)nc2ccnn2c1Nc1ccc(-c2ccccc2F)cc1`, the half-inhibitory concentration (IC50) was under 100 µM.

Regarding `CCc1c(N[C@H]2CC[C@H](N)CC2)nc2ccnn2c1Nc1ccc(I)cc1`, the IC50 is under 100 µM.

As for `Cc1c(N[C@H]2CC[C@H](N)CC2)nc2ccnn2c1Nc1ccc(-c2ccc(C#N)cc2)cc1`, the IC50 was under 100 µM.

In the case of `CCOc1ccc(Nc2c(C)c(N[C@H]3CC[C@H](N)CC3)nc3c(S(C)(=O)=O)cnn23)cc1`, the IC50 is under 100 µM.

For the compound `COc1cccc(Nc2c(C)c(N[C@H]3CC[C@H](N)CC3)nc3ccnn23)c1`, the IC50 is under 100 µM.

The compound `Cc1c(N[C@H]2CC[C@H](N)CC2)nc2ccnn2c1Nc1cccc(OCc2ccccc2Cl)c1` displayed a half-maximal inhibitory concentration (IC50) of under 100 µM.

`Cc1c(N[C@H]2CC[C@H](N)CC2)nc2ccnn2c1Nc1ccc(-c2cc3ccccc3o2)cc1` had an IC50 of under 100 µM.

`Cc1c(N[C@H]2CC[C@H](N)CC2)nc2ccnn2c1Nc1cccc(OC2CCCC2)c1` had an IC50 of under 100 µM.

In the case of `CCOc1ccc(Nc2c(C)c(NC3(CO)CCCC3)nc3ccnn23)cc1`, the IC50 was under 100 µM.

Consider `CC(C)c1c(N[C@H]2CC[C@H](N)CC2)nc2ccnn2c1Nc1ccc(F)c(Cl)c1`, for which the IC50 was under 100 µM.

With `CCOc1cccc(Nc2c(CC)c(N[C@H]3CC[C@H](N)CC3)nc3ccnn23)c1`, the half-inhibitory concentration (IC50) was under 100 µM.

Compound `COc1cccc(COc2cccc(Nc3c(C)c(N[C@H]4CC[C@H](N)CC4)nc4ccnn34)c2)c1` came in with an IC50 of under 100 µM.

`N[C@H]1CC[C@H](Nc2cc(Nc3ccccc3Cl)n3ncc(I)c3n2)CC1` showed a half-maximal inhibitory concentration (IC50) of under 100 µM.

Turning to `Cc1c(N[C@H]2CC[C@H](N)CC2)nc2ccnn2c1Nc1cccc(OCC2CCCC2)c1`, the half-maximal inhibitory concentration (IC50) is under 100 µM.

Consider `C=C(C)CNc1c(CC)c(N[C@H]2CC[C@H](N)CC2)nc2ccnn12`, for which the half-inhibitory concentration (IC50) is under 100 µM.

Take `CSc1cnn2c(Nc3ccc(F)c(Cl)c3)cc(N[C@H]3CC[C@H](N)CC3)nc12`: the IC50 is under 100 µM.

On to `CNC(=O)c1ccc(Nc2c(C)c(N[C@H]3CC[C@H](N)CC3)nc3ccnn23)cc1`, for which the IC50 was under 100 µM.

For `COc1cccc(COc2ccc(Nc3c(C)c(N[C@H]4CC[C@H](N)CC4)nc4ccnn34)cc2)c1`, the IC50 is under 100 µM.

Take `CCc1c(N[C@H]2CC[C@H](N)CC2)nc2ccnn2c1Nc1cccc(Cl)c1`: the IC50 was under 100 µM.

`Cc1c(N[C@H]2CC[C@H](N)CC2)nc2ccnn2c1Nc1ccc(-c2cccc(CO)c2)cc1` had a half-maximal inhibitory concentration (IC50) of under 100 µM.

Compound `Cc1c(N[C@H]2CC[C@H](N)CC2)nc2ccnn2c1Nc1ccc(-c2cccc(OC(F)(F)F)c2)cc1` yielded a half-maximal inhibitory concentration (IC50) of under 100 µM.

`Cc1c(N[C@H]2CC[C@H](N)CC2)nc2ccnn2c1Nc1ccc(C(=O)NCc2cccnc2)cc1` showed an IC50 of under 100 µM.

Turning to `CCOc1ccc(Nc2c(C)c(N[C@H]3CC[C@H](N)CC3)nc3c(C4CCCCC4)cnn23)cc1`, the 50% inhibitory concentration (IC50) is under 100 µM.

As usually defined, the IC50 is the midpoint of a concentration-inhibition curve.

Values taken from the Kinase Knowledgebase extract (Sharma et al. 2016).
